Active and inactive are the calls of the source. The rule behind the calls is not given here.
What was measured:
[1] = target: Metabotropic glutamate receptor 2 (Rattus norvegicus) (UniProt P31421); experiment: Negative allosteric modulatory activity at rat mGlu2 receptor transfected in HEK293 cells coexpressing mouse Galpha15 assessed as decrease in glutamate-induced calcium signaling by fluorescence plate reader analysis in presence of glutamate at EC76 concentration; assay type: functional, cell-based
[2] = system: Plasma; experiment: Fraction unbound in human plasma; assay type: ADME, cell-free
[3] = target: Metabotropic glutamate receptor 4 (Rattus norvegicus) (UniProt P31423); experiment: Activity at rat mGlu4 receptor assessed as glutamate-induced GIRK response at 10 uM
[4] = target: Metabotropic glutamate receptor 5 (Rattus norvegicus) (UniProt P31424); experiment: Activity at rat mGlu5 receptor assessed as glutamate-induced calcium signaling at 10 uM by fluorescence plate reader analysis; assay type: functional
[5] = target: Metabotropic glutamate receptor 6 (Homo sapiens) (UniProt O15303); experiment: Activity at human mGlu6 receptor assessed as glutamate-induced GIRK response at 10 uM
[6] = target: Metabotropic glutamate receptor 2 (Rattus norvegicus) (UniProt P31421); experiment: Inhibition of rat mGlu2 receptor assessed as decrease in glutamate-induced calcium signaling at 10 uM by fluorescence plate reader analysis; assay type: functional
[7] = target: Metabotropic glutamate receptor 8 (Rattus norvegicus) (UniProt P70579); experiment: Activity at rat mGlu8 receptor assessed as glutamate-induced GIRK response at 10 uM
[8] = target: Metabotropic glutamate receptor 3 (Rattus norvegicus) (UniProt P31422); details: 10 uM
Description: Inhibition of rat mGlu3 receptor assessed as decrease in glutamate-induced calcium signaling at 10 uM by fluorescence plate reader analysis

[9] = target: Metabotropic glutamate receptor 3 (Rattus norvegicus, UniProt P31422); experiment: Inhibition of rat mGlu3 receptor transfected in HEK293 cells coexpressing mouse Galpha15 assessed as decrease in glutamate-induced calcium signaling by fluorescence plate reader analysis in presence of glutamate at EC87 concentration; assay type: functional, cell-based
[10] = system: Plasma; experiment: Fraction unbound in rat plasma; assay type: ADME, cell-free
[11] = target: Metabotropic glutamate receptor 7 (Rattus norvegicus) (UniProt P35400); experiment: Activity at rat mGlu7 receptor assessed as glutamate-induced GIRK response at 10 uM
[12] = target: Metabotropic glutamate receptor 2 (Rattus norvegicus, UniProt P31421); experiment: Inhibition of rat mGlu2 receptor transfected in HEK293 cells coexpressing mouse Galpha15 assessed as decrease in glutamate-induced calcium signaling by fluorescence plate reader analysis in presence of glutamate at EC76 concentration; assay type: functional, cell-based
Chain of Metabotropic glutamate receptor 2 (P31421 whole entry): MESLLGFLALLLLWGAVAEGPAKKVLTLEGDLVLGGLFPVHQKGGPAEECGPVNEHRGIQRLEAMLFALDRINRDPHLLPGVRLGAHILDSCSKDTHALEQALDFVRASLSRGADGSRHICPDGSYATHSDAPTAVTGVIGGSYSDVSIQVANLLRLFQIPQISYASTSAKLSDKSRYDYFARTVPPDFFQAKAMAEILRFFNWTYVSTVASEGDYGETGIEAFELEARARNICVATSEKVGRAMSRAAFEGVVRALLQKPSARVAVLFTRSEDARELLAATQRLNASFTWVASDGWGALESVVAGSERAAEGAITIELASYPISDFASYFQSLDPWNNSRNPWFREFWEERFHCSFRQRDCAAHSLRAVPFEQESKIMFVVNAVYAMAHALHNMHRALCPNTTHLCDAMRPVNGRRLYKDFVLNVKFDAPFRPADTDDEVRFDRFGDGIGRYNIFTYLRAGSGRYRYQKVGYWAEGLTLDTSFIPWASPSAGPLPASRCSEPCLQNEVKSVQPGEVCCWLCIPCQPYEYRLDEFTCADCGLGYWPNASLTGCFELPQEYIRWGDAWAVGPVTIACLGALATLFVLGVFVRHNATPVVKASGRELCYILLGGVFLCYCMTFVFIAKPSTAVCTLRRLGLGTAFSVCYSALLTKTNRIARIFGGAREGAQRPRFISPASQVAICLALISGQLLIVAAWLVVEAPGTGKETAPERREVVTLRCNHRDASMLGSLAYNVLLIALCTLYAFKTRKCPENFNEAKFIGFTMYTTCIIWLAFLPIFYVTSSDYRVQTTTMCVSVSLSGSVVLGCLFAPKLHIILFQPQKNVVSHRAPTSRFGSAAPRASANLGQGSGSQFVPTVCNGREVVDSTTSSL

Chain of Metabotropic glutamate receptor 2 (Rattus norvegicus) (P31421 19-872 limits assumed): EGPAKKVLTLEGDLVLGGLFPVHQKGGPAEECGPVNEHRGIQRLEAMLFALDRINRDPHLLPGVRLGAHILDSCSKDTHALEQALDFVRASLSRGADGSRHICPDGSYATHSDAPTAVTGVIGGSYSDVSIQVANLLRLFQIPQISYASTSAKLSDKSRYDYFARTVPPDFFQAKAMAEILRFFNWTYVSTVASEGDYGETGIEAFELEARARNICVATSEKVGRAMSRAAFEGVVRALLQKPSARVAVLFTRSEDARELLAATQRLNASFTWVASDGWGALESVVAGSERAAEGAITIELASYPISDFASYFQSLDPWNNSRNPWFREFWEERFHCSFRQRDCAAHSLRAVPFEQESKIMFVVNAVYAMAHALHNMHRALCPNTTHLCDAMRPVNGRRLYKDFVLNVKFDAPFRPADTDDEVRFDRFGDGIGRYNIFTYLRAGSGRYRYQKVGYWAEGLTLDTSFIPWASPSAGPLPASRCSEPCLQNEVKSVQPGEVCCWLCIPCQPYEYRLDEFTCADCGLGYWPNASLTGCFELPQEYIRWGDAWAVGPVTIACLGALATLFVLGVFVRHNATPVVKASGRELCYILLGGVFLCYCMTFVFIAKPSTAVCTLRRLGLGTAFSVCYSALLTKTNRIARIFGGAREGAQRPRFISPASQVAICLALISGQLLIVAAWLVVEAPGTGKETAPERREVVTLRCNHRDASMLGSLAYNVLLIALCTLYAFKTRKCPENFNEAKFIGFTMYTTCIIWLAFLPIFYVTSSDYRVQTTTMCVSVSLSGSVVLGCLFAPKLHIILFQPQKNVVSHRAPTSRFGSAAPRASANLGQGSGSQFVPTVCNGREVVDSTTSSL
Chain of Metabotropic glutamate receptor 3 (P31422 whole entry): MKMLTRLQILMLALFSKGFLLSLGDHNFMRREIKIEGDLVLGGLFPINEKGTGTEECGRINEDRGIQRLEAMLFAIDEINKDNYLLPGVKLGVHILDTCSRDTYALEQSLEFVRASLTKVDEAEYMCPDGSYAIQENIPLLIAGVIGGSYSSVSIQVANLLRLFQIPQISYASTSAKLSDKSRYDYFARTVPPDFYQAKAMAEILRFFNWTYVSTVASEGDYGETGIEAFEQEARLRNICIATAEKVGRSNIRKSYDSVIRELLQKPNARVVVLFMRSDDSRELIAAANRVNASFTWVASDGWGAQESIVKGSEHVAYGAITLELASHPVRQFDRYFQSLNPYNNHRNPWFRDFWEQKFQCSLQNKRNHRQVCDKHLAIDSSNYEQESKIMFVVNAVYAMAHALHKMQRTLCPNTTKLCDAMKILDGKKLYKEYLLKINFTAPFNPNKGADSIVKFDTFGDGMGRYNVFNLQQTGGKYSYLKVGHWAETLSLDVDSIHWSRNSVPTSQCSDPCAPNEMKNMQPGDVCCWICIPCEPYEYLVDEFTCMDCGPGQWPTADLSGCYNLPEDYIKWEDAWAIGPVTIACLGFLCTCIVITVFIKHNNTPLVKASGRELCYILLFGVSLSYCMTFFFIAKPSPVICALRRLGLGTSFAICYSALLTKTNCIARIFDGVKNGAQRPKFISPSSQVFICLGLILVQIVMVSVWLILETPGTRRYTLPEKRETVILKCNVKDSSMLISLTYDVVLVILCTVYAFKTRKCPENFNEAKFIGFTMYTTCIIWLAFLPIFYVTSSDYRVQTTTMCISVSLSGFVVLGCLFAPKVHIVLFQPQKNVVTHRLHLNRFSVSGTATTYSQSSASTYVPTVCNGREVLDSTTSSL
Chain of Metabotropic glutamate receptor 3 (Rattus norvegicus) (P31422 23-879 limits assumed): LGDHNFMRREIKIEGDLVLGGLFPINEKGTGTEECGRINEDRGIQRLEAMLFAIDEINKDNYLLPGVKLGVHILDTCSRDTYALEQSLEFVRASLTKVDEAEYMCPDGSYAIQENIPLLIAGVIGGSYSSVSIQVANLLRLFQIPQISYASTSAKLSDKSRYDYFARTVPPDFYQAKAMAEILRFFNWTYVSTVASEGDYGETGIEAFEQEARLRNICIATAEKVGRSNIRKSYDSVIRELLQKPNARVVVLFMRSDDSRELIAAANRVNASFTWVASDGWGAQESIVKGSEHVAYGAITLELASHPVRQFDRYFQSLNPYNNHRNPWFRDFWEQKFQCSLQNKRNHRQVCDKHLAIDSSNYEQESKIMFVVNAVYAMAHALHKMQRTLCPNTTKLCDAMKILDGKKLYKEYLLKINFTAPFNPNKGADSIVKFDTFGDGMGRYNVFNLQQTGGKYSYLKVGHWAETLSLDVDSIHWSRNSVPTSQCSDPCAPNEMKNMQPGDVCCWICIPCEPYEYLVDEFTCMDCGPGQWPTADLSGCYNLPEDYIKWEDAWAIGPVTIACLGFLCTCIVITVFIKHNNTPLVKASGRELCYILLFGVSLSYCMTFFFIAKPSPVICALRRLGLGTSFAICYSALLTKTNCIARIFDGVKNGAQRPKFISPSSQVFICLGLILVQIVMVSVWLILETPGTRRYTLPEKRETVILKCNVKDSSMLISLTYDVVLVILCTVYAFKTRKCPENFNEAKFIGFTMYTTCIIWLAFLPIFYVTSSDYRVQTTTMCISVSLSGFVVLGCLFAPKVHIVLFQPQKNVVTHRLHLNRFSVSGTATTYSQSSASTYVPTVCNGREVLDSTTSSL
Chain of Metabotropic glutamate receptor 4 (Rattus norvegicus) (P31423 whole entry): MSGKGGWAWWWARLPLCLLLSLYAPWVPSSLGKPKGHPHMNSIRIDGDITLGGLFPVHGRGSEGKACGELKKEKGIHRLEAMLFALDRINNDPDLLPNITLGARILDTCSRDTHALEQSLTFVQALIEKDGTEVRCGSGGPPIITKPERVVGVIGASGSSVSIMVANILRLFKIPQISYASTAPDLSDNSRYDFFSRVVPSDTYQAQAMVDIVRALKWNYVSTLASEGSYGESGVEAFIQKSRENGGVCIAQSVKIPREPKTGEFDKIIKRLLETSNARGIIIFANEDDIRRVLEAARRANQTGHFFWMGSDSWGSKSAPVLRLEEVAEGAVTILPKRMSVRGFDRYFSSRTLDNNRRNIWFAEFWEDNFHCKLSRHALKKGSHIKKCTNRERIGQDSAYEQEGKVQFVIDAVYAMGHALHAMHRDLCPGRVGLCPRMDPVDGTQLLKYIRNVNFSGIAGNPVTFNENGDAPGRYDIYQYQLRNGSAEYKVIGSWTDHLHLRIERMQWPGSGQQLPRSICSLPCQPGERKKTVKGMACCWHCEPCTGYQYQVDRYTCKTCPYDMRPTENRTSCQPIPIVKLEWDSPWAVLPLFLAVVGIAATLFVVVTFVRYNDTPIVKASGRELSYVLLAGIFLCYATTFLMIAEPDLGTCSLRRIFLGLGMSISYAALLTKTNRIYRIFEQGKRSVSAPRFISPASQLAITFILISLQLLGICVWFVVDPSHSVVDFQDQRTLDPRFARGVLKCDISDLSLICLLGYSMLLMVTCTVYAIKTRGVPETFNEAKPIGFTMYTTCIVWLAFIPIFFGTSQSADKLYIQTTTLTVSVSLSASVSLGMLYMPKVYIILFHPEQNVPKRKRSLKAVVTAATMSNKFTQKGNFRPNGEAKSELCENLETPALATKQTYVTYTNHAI

With `Cn1c(=O)c2ccc(-c3cncnc3)cc2n2nc(-c3ccccc3)cc12` the Activity [1] was “Dose-dependent effect”, the Fu [2] was 0.008 and the Activity [3] was “inactive”. The Activity [4] was “inactive”, the Activity [5] was “inactive” and the inhibition [6] was “Active”. For the same compound, the Activity [7] was “inactive”, the inhibition [8] was “Active” and the IC50 [9] was 78 nM. For the same compound, the Fu [10] was 0.003, the Activity [11] was “inactive” and the IC50 [12] was 245 nM.
